In the NIST ThermoML archive (doi:10.1021/je600573w):

Experiments:
[1] = 101.33 kPa, Liquid, Vibrating tube method
[2] = molar heat capacity at constant pressure; conditions: 101.33 kPa, Liquid, Small sample (50 mg) DSC

Clc1cccc(Br)c1 [1-bromo-3-chlorobenzene]
Conditions | mass density [kg/m3] | molar heat capacity at constant pressure [J/K/mol]
[1], 288.15 K | 1638.44 | –
[1], 298.15 K | 1624.97 | –
[1], 308.15 K | 1611.51 | –
[1], 318.15 K | 1598.05 | –
[1], 328.15 K | 1584.56 | –
[1], 338.15 K | 1571.05 | –
[2], 283.15 K | – | 171.14
[2], 285.15 K | – | 171.49
[2], 287.15 K | – | 171.84
[2], 289.15 K | – | 172.21
[2], 291.15 K | – | 172.59
[2], 293.15 K | – | 172.97
[2], 295.15 K | – | 173.36
[2], 297.15 K | – | 173.75
[2], 299.15 K | – | 174.15
[2], 301.15 K | – | 174.56
[2], 303.15 K | – | 174.98
[2], 305.15 K | – | 175.4
[2], 307.15 K | – | 175.82
[2], 309.15 K | – | 176.25
[2], 311.15 K | – | 176.68
[2], 313.15 K | – | 177.12
[2], 315.15 K | – | 177.56
[2], 317.15 K | – | 178
[2], 319.15 K | – | 178.44
[2], 321.15 K | – | 178.89
[2], 323.15 K | – | 179.33
[2], 325.15 K | – | 179.78
[2], 327.15 K | – | 180.23
[2], 329.15 K | – | 180.68
[2], 331.15 K | – | 181.13
[2], 333.15 K | – | 181.58
[2], 335.15 K | – | 182.03
[2], 337.15 K | – | 182.47
[2], 339.15 K | – | 182.92
[2], 341.15 K | – | 183.36
[2], 343.15 K | – | 183.8
[2], 345.15 K | – | 184.24
[2], 347.15 K | – | 184.67
[2], 349.15 K | – | 185.1
[2], 351.15 K | – | 185.52
[2], 353.15 K | – | 185.94

Brc1cccc(Br)c1 [1,3-dibromobenzene]
Conditions | mass density [kg/m3] | molar heat capacity at constant pressure [J/K/mol]
[1], 288.15 K | 1964.14 | –
[1], 298.15 K | 1948.87 | –
[1], 308.15 K | 1933.61 | –
[1], 318.15 K | 1918.3 | –
[1], 328.15 K | 1903.13 | –
[1], 338.15 K | 1887.88 | –
[2], 283.15 K | – | 176.01
[2], 285.15 K | – | 176.4
[2], 287.15 K | – | 176.71
[2], 289.15 K | – | 177.04
[2], 291.15 K | – | 177.38
[2], 293.15 K | – | 177.72
[2], 295.15 K | – | 178.08
[2], 297.15 K | – | 178.44
[2], 299.15 K | – | 178.81
[2], 301.15 K | – | 179.19
[2], 303.15 K | – | 179.58
[2], 305.15 K | – | 179.97
[2], 307.15 K | – | 180.37
[2], 309.15 K | – | 180.78
[2], 311.15 K | – | 181.19
[2], 313.15 K | – | 181.6
[2], 315.15 K | – | 182.01
[2], 317.15 K | – | 182.43
[2], 319.15 K | – | 182.85
[2], 321.15 K | – | 183.28
[2], 323.15 K | – | 183.7
[2], 325.15 K | – | 184.13
[2], 327.15 K | – | 184.55
[2], 329.15 K | – | 184.98
[2], 331.15 K | – | 185.4
[2], 333.15 K | – | 185.83
[2], 335.15 K | – | 186.25
[2], 337.15 K | – | 186.67
[2], 339.15 K | – | 187.08
[2], 341.15 K | – | 187.49
[2], 343.15 K | – | 187.9
[2], 345.15 K | – | 188.3
[2], 347.15 K | – | 188.7
[2], 349.15 K | – | 189.09
[2], 351.15 K | – | 189.47
[2], 353.15 K | – | 189.85
